Data on 4 compounds can be found in patent US11385229B2, “Amplification technology using dual enzyme cascade detection” (The Regents of the University of California, priority 2017, dated 2022).

SMILES strings stand for the structures.

Assay [1] concerns E. coli clinical isolates. As to the kind of experiment: standard susceptibility testing (disc diffusion). Type of assay: cell-based. Particulars: for standard susceptibility testing: E. coli isolate SF334 (blaTEM-1).
Assay [2] has as its system K. pneumoniae clinical isolates. As to the kind of experiment: standard susceptibility testing (disc diffusion). In kind it is cell-based.
Assay [3] relates to E. coli isolated from CA-UTI urine samples. The experiment in a line: susceptibility testing of E. coli cultured from CA-UTI urine samples. In kind it is cell-based. Particulars: 23 of 34 E. coli from CA-UTI samples. As for the experimental part:
In order to establish the threshold Δλ405 of DETECT, that delineates β-lactam-susceptible from β-lactam-resistant urine samples, we simultaneously analyzed urine samples by traditional microbiology techniques as a standard for comparison (raw Δλ405 of DETECT values shown in Table S1). As such, urine samples were cultured for identification of E. coli, and E. coli isolates were tested for susceptibility to ampicillin and cephalexin. Samples were separated for analyses based on susceptibility or resistance to these agents, and an average Δλ405 value was calculated for each group. The average Δλ405 values corresponding to β-lactam-resistant and β-lactam-susceptible samples are shown in FIG. 5B, where the average Δλ405 of samples defined by traditional susceptibility analyses as resistant to ampicillin or cephalexin was 1.026, and the average Δλ405 in samples containing susceptible E. coli was 0.2990 (p=0.00048, two-tailed t-test). Finally, the threshold value was defined as 0.616, three standard deviations greater than the average Δλ405 of β-lactam-susceptible isolates. Therefore, samples with Δλ405>0.616 were defined as “positive” by DETECT (or resistant to early-generation β-lactams), and samples with Δλ405<0.616 were defined as “negative” by DETECT (or susceptible to β-lactams), the latter of which would qualify for treatment with an early-generation β-lactam. […]

Assay [4] deals with TEM-1-producing E. coli clinical isolate SF334. In kind it is cell-based. Particulars: E. coli isolate SF334 (TEM-1).
Protocol: Whole-cell suspensions of SF334 were prepared as described above. First, we confirmed β-lactamase activity in the TEM-1-producing clinical isolate by incubating 10^6 CFU of SF334 with the DETECT components (FIG. 4A), then collecting absorbance values at 405 nm after 45, 60, 120, and 180 min of incubation. […] The analogous experiment was performed with nitrocefin, where whole-cell suspensions of SF334 and SF505 were incubated with nitrocefin. As indicated in the literature, samples were incubated with nitrocefin for up to only 30 min to minimize background signal associated with non-selective hydrolysis^14.
Subsequent studies were performed to establish the detection limit of DETECT relative to nitrocefin, by serially diluting isolate SF334 in 100-fold increments. […]
(A) Schematic representation of the experiments performed with E. coli clinical isolates, where bacterial suspensions were incubated with DETECT components thiophenol-β-lac, disulfide-protected papain, and BAPA in a 96-well plate. Following 1 h of incubation, the sample wells were analyzed with a microplate reader and the absorbance at 405 nm was collected. […] (C) Plot displaying the signal outputs generated by DETECT in the presence of varying quantities of SF334, which was carried out to define the signal threshold of DETECT compared to the current standard, nitrocefin. […]
The target in assay [5] is recombinant TEM-1 β-lactamase (Escherichia coli, UniProt P62593). Particulars: recombinant TEM-1, absorbance 486 nm.
Chain of recombinant TEM-1 β-lactamase (P62593 24-286 limits assumed): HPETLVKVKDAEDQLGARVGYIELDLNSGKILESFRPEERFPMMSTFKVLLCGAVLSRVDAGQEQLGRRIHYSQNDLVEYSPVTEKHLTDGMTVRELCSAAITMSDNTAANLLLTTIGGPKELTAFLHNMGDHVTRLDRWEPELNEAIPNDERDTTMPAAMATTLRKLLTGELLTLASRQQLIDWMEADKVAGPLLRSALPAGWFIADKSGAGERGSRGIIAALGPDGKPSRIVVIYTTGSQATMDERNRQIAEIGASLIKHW
Description: To verify the targeting capacity and establish the amplification capacity of thiophenol-β-lac, we first targeted the β-lactamase TEM-1, which mediates resistance to β-lactam antibiotics, such as ampicillin We compared the sensitivity of DETECT against the standard chromogenic β-lactamase probe nitrocefin (FIG. 3)^19. Recombinant TEM-1 activity was quantified by measuring the formation of the hydrolytic chromogenic products from DETECT or nitrocefin in a time-dependent manner with a microplate reader (DETECT hydrolytic product=405 nm, and nitrocefin hydrolytic product=486 nm).
(B) Time-dependent plot of β-lactamase activity assay performed with DETECT, where varied concentrations of recombinant TEM-1 were incubated with the DETECT system in a 96-well plate for 90 min. The absorbance at 405 nm was collected in 5 min intervals and plotted against time. (C) Photograph of color change caused from DETECT amplification in wells where TEM-1 was present at increasing concentrations from right to left. The rightmost well is a control well where all the components were incubated in the absence of TEM-1. (D) Time-dependent biochemical experiment where varied concentrations of TEM-1 were incubated with the standard β-lactamase probe nitrocefin in a 96-well plate, and the respective absorbance values were collected on a microplate reader (486 nm). […]
The target of assay [6] is papain (Carica papaya, UniProt P00784). To be noted: BAPA as papain substrate; cited from earlier work.
Chain of papain (P00784 134-345): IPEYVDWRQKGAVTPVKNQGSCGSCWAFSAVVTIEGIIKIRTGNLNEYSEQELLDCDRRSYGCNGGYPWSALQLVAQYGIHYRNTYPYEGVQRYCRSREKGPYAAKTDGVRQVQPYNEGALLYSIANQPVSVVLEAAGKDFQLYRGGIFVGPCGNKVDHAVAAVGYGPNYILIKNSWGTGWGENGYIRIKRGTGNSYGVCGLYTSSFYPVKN
[7] abbreviates: E. coli isolate BE30, β-lactamase gene SHV-1.
Where [8] appears, read: E. coli isolate BE115, β-lactamase gene OXA-1.
[9] abbreviates: E. coli isolate BE372, β-lactamase gene TEM-1 (1b).
Setting [10] is: E. coli isolate BE527, β-lactamase gene SHV-1.
The mark [11] stands for this setting: E. coli isolate BE1004, β-lactamase gene TEM-1 (1c).
Where [12] appears, read: E. coli isolate BE1173, β-lactamase gene TEM-1 (1b).
[13] abbreviates: E. coli isolate BE1335, β-lactamase gene SHV-1.
Where [14] appears, read: E. coli isolate BR2, β-lactamase gene KPC-2.
Where [15] appears, read: E. coli isolate SF105, β-lactamase gene TEM-1.
The mark [16] stands for this setting: E. coli isolate SF141, β-lactamase gene CMY-2.
Where [17] appears, read: E. coli isolate SF148, β-lactamase gene CTX-M-14.
[18] abbreviates: E. coli isolate SF207, β-lactamase gene CMY-2.
Where [19] appears, read: E. coli isolate SF384, β-lactamase gene ND.
The mark [20] stands for this setting: E. coli isolate SF410, β-lactamase gene CTX-M-15.
[21] abbreviates: E. coli isolate SF487, β-lactamase gene CTX-M-14.
[22] abbreviates: E. coli isolate SF674, β-lactamase gene CTX-M-15.
Where [23] appears, read: K. pneumoniae isolate ATCC 700603, β-lactamase gene SHV-18 (ESBL).
Setting [24] is: K. pneumoniae isolate BR1, β-lactamase gene SHV-185.
Where [25] appears, read: K. pneumoniae isolate BR27, β-lactamase gene SHV-11.
[26] abbreviates: K. pneumoniae isolate BR28, β-lactamase gene KPC-2, SHV-11.
Where [27] appears, read: K. pneumoniae isolate BR45, β-lactamase gene SHV-38/168.
[28] abbreviates: K. pneumoniae isolate BR50, β-lactamase gene SHV-62.
Where [29] appears, read: K. pneumoniae isolate BR52, β-lactamase gene SHV-132.
Where [30] appears, read: K. pneumoniae isolate BR313, β-lactamase gene SHV-83/187.
Where [31] appears, read: K. pneumoniae isolate SF412, β-lactamase gene ND.
[32] abbreviates: K. pneumoniae isolate SF519, β-lactamase gene ND.

For `CC1(C)S[C@@H]2[C@H](NC(=O)[C@H](N)c3ccccc3)C(=O)N2[C@H]1C(=O)O` [Ampicillin, ampicillin], the Ampicillin susceptibility entry in assay [1] (setting [7]), in assay [1] (setting [8]), in assay [1] (setting [9]), in assay [1] (setting [10]), in assay [1] (setting [11]) and in assay [1] (setting [12]) was “R” in each case. Also, the Ampicillin susceptibility result in assay [1] (setting [13]), in assay [1] (setting [14]), in assay [1] (setting [15]), in assay [1] (setting [16]), in assay [1] (setting [17]) and in assay [1] (setting [18]) was “R” in each case. In addition, the Ampicillin susceptibility entry is recorded as “S” in assay [1] (setting [19]); “R” in assay [1] (setting [20]); “R” in assay [1] (setting [21]); “R” in assay [1] (setting [22]); “R” in assay [2] (setting [23]); “R” in assay [2] (setting [24]). In addition, the Ampicillin susceptibility entry in assay [2] (setting [25]), in assay [2] (setting [26]), in assay [2] (setting [27]), in assay [2] (setting [28]), in assay [2] (setting [29]) and in assay [2] (setting [30]) was “R” throughout. Further, the Ampicillin susceptibility result in assay [2] (setting [31]) and in assay [2] (setting [32]) was “S” throughout. The standard susceptibility testing result in assay [1] is on record as “resistance”. The “E. coli isolates susceptible” value in assay [3] is listed as 68%.
Regarding `O=C(Cc1cccs1)N[C@@H]1C(=O)N2C(C(=O)O)=C(/C=C/c3ccc([N+](=O)[O-])cc3[N+](=O)[O-])CS[C@H]12` [nitrocefin], in assay [4], the “suspension of SF334 needed to identify β-lactamase activity above background” value was 10^7 CFU/mL. Besides, the “limit of detection of TEM-1” value in assay [5] amounted to 4 nM.
Consider `CC1=C(C(=O)O)N2C(=O)[C@@H](NC(=O)[C@H](N)c3ccccc3)[C@H]2SC1` [Cephalexin, cephalexin], for which the Cephalexin susceptibility result is “S” in assay [1] (setting [7]); “S” in assay [1] (setting [8]); “R” in assay [1] (setting [9]); “S” in assay [1] (setting [10]); “S” in assay [1] (setting [11]); “S” in assay [1] (setting [12]). The Cephalexin susceptibility result is on record as “S” in assay [1] (setting [13]); “R” in assay [1] (setting [14]); “R” in assay [1] (setting [15]); “R” in assay [1] (setting [16]); “R” in assay [1] (setting [17]); “R” in assay [1] (setting [18]). For the same compound, the Cephalexin susceptibility entry in assay [1] (setting [19]) is reported as “S”; in assay [1] (setting [20]), “R”; in assay [1] (setting [21]), “R”; in assay [1] (setting [22]), “R”; in assay [2] (setting [23]) it was “R”; in assay [2] (setting [24]) it was “S”. Moreover, the Cephalexin susceptibility result is given as “S” in assay [2] (setting [25]); “R” in assay [2] (setting [26]); “S” in assay [2] (setting [27]); “S” in assay [2] (setting [28]); “S” in assay [2] (setting [29]); “S” in assay [2] (setting [30]). Besides, the Cephalexin susceptibility entry in assay [2] (setting [31]) and in assay [2] (setting [32]) was “S” throughout. Besides, in assay [1], the standard susceptibility testing entry is on record as “resistance”.
As to `N=C(N)NCCC[C@H](NC(=O)c1ccccc1)C(=O)Nc1ccc([N+](=O)[O-])cc1` [BAPA, N-benzoyl-L-arginine-p-nitroaniline], in assay [6], the “KCAT value with papain” value was 0.7 to 0.8 s⁻¹.
